Measured values: US8278337B2, “Substituted pyridines that are JNK inhibitors” (Merck Sharp & Dohme, priority 2006, dated 2012)
pIC50: −log10 of the molar value. Where “and” joins values, the source holds several entries; their conditions need not be identical. Equal values may be shown once.

Each compound was assayed against JNK1 (Homo sapiens, UniProt P45983) (assay: DELFIA kinase assay, JNK1). Settings: DELFIA assay, 2 nM JNK1, 7 uM ATP, 10 min pre-incubation; second table; read-out: JNK 1 IC50.
Sequence of JNK1 (P45983 whole entry, species assumed): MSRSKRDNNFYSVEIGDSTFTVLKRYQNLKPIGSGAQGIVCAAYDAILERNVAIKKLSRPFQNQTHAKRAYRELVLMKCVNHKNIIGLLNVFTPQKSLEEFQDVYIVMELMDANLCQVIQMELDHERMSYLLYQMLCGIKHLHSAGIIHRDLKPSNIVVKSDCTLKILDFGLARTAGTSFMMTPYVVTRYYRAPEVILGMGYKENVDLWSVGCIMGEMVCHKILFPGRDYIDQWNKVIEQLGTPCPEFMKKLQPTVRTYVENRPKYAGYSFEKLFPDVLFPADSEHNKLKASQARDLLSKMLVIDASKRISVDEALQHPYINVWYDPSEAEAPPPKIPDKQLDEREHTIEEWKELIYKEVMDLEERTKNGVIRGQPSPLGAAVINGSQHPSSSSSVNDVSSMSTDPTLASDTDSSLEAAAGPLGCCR
Type: biochemical
Experimental: Assay DELFIA (Dissociation Enhanced Lanthanide Fluorescence Immuno-Assay) Assay:
Before initiation of kinase reactions, compounds were pre-incubated with the enzyme for 10 minutes. Pre-incubation reactions contained 50 mM HEPES pH 7.3, 10 mM MgCl2, 1 mM DTT, 75 mM NaCl, 1 mM EDTA, 1 mM EGTA, 0.01% CHAPS, 2 nM JNK1, 6 ug/mL biotinylated GST-ATF2, 0.1 mg/ml BSA, 5% DMSO and 0-100 μM compound in a total volume of 40 μL. After a 10 minute room temperature pre-incubation, 10 μL of 35 μM ATP was added to start the reaction (final concentration of ATP=7 uM). Reactions were incubated at room temperature for 30 minutes. A small aliquot (10 uL) was taken and quenched by adding into 190 uL of DELFIA Assay buffer containing 100 mM EDTA. The amount of phosphate transferred to biotinylated GST-ATF2 was measured using the Dissociation Enhanced Lanthanide Fluorescence Immuno-assay (DELFIA) from Perkin Elmer according to manufacturers protocol. Briefly, biotinylated GST-ATF2 was captured on streptavidin coated plates for 1 hour, washed twice, then incubated for 1 hour with a 1:1000 dilution of rabbit-anti-phospho-ATF2 antibody and a 1:3500 dilution of Europium-labeled anti-rabbit secondary antibody. Free antibody was removed with six washes, Europium was dissociated from the antibody, and Europium fluorescence was measured using an excitation wavelength of 340 nm and an emission wavelength of 615 nm. JNK2 and JNK3 kinase reactions were carried out similarly, with the exception that the final concentration of ATP was 4 uM and 2 uM, respectively.
In the case of `CC(C)NC(=O)c1cccc(C(=O)NCc2cnn(-c3ccc4nccnc4c3)c2)n1` [Compound 151], the pIC50 was 7.89. `CS(=O)(=O)c1ccc(-n2cc(CNC(=O)c3cccc(C(=O)NC4CCC4)n3)cn2)cc1` [Compound 76] gave a pIC50 of 8.00.

Same assay, conditions: DELFIA, biotinylated GST-ATF2 substrate, 10 minute pre-incubation, final ATP 7 uM
With `Cc1cccc(-c2ccc(CNC(=O)c3cccc(C(=O)NC(C)C)n3)cn2)c1` [Compound 174] the pIC50 was 6.02 to 6.99. With `CC(C)NC(=O)c1cccc(C(=O)NCc2ccc(N3CCOCC3)nc2)n1` [Compound 115] the pIC50 was 6.02 to 6.99. For `CC(C)NC(=O)c1cccc(C(=O)NCc2ccc(-c3ccc4ncccc4c3)nc2)n1` [Compound 186], the pIC50 was 6.02 to 6.99. For `CC(C)NC(=O)c1cccc(C(=O)NCc2cnn(-c3cnc4[nH]cnc4c3)c2)n1` [Compound 219], the pIC50 was 7.01 to 8.40. `O=C(NCc1nc2ccccc2s1)c1cccc(-c2nc3ccccc3[nH]2)n1` [Compound 378] showed a pIC50 of 6.02 to 6.99. With `CC(=O)N(C)c1cccc(C(=O)NCc2cnn(-c3cccc(C(F)(F)F)c3)c2)n1` [Compound 363] the pIC50 was < 6.00 and 5.00 to 5.99. `CC(C)NC(=O)c1cccc(C(=O)NCc2ccc(-c3ccc(F)c(Cl)c3)nc2)n1` [Compound 184] showed a pIC50 of 6.02 to 6.99. Work on `Cc1ccc(CNC(=O)c2cccc(C(=O)NC(C)C)n2)cc1F` [Compound 110] yielded a pIC50 of 6.02 to 6.99. Work on `COc1ccc(-c2cc(CNC(=O)c3cccc(C(=O)NC(C)C)n3)no2)cc1` [Compound 86] yielded a pIC50 of 7.01 to 8.40. For `CC(C)CNc1cccc(C(=O)NCc2ccc(S(C)(=O)=O)cc2)n1` [Compound 337], the pIC50 was < 6.00 and 5.00 to 5.99. `Cc1cccc(-n2cc(CNC(=O)c3ccc(F)c(C(=O)NC(C)C)n3)cn2)c1` [Compound 428] gave a pIC50 of 7.01 to 8.40. With `CC(C)NC(=O)c1cccc(C(=O)NCc2cnn(-c3ccc4nccnc4c3)c2)n1` [Compound 151] the pIC50 was 7.72 to 8.40 and 7.01 to 8.40. For `CC(C)NC(=O)c1cccc(C(=O)NCc2ccc(N)nc2)n1` [Compound 113], the pIC50 was 6.02 to 6.99. For `CS(=O)(=O)c1ccc(CNC(=O)c2cccc(-n3cc(I)cn3)n2)cc1` [Compound 318], the pIC50 was 6.02 to 6.99. With `CCOC(=O)N1CCC(NC(=O)c2cccc(C(=O)NCCO)n2)CC1` [Compound 40] the pIC50 was under 6.00. `CC(C)NC(=O)c1cccc(C(=O)NCc2ccc(Cl)cc2)n1` [Compound 97] was tested, and the pIC50 was 6.02 to 6.99. Work on `COC(=O)Nc1cccc(C(=O)NCc2cnn(-c3cccc(C(F)(F)F)c3)c2)n1` [Compound 355] yielded a pIC50 of 6.02 to 6.99. `Nc1nc2ccc(CNC(=O)c3cccc(C(=O)NC[C@@H](O)c4ccccc4)n3)cc2s1` [Compound 24] gave a pIC50 of under 6.00. For `CC(C)NC(=O)c1cccc(C(=O)NCc2ccc(-c3cccc(S(C)(=O)=O)c3)cc2)n1` [Compound 193], the pIC50 was 7.01 to 8.40. In the case of `COC(=O)c1ccc(C2CCN(C(=O)c3cccc(C(=O)NCc4ccc5nc(N)sc5c4)n3)CC2O)cc1` (stereo not drawn) [Compound 33], the pIC50 was under 6.00. `CC(C)NC(=O)c1cccc(C(=O)NCc2cnn(C)c2)n1` [Compound 116] was tested, and the pIC50 was < 6.00 and 5.00 to 5.99. For `CC(C)NC(=O)c1cccc(C(=O)NCc2cnn(-c3cnc4nccn4c3)c2)n1` [Compound 213], the pIC50 was 6.02 to 6.99. Work on `CC(C)NC(=O)c1cccc(C(=O)NCc2cnn(-c3ccccn3)c2)n1` [Compound 156] yielded a pIC50 of 6.02 to 6.99. `Nc1nc2ccc(CNC(=O)c3cccc(C(=O)N4CCCC(CO)C4)n3)cc2s1` (stereo not drawn) [Compound 37] gave a pIC50 of under 6.00. For `CC(C)NC(=O)c1cccc(C(=O)NCc2ccn(-c3ccc(S(C)(=O)=O)cc3)n2)n1` [Compound 309], the pIC50 was 6.02 to 6.99. `CC(C)(C)NC(=O)c1cccc(C(=O)NCc2ccc3nc(N)sc3c2)n1` [Compound 53] gave a pIC50 of 6.02 to 6.99. With `CC(C)NC(=O)c1cccc(C(=O)NCC2CCN(c3ccc(S(C)(=O)=O)cc3)CC2)n1` [Compound 422] the pIC50 was < 6.00 and 5.00 to 5.99. `CC(C)NC(=O)c1cccc(C(=O)NCc2cncc(-c3ccc(S(C)(=O)=O)cc3)c2)n1` [Compound 255] showed a pIC50 of 7.01 to 8.40. `CS(=O)(=O)c1ccc(-n2cc(CNC(=O)c3cccc(-n4cc(I)cn4)n3)cn2)cc1` [Compound 292] showed a pIC50 of 7.01 to 8.40. With `CC(C)(C)c1nnc(-c2cccc(C(=O)NCc3cnn(-c4ccc(S(C)(=O)=O)cc4)c3)n2)o1` [Compound 302] the pIC50 was 6.02 to 6.99. `CCOC(=O)N1CCC(NC(=O)c2cccc(NC(=O)Cc3ccc4c(c3)OCO4)n2)CC1` [Compound 401] was tested, and the pIC50 was < 6.00 and 5.00 to 5.99. For `CC(C)NC(=O)c1cccc(C(=O)NCc2cnn(-c3ccc4cncnc4c3)c2)n1` [Compound 216], the pIC50 was 7.01 to 8.40. With `O=C(NCc1cnn(-c2cccc(C(F)(F)F)c2)c1)c1cccc(N2CCC(c3ccccn3)C2)n1` (stereo not drawn) [Compound 346] the pIC50 was 5.00 to 5.99 and < 6.00. `CC(C)NC(=O)c1cccc(C(=O)NCC2CCN(c3cccc(S(C)(=O)=O)c3)CC2)n1` [Compound 421] was tested, and the pIC50 was < 6.00 and 5.00 to 5.99. `Cc1cc(C)n(-c2cccc(C(=O)NCc3ccc(S(C)(=O)=O)cc3)n2)n1` [Compound 320] was tested, and the pIC50 was < 6.00 and 5.00 to 5.99. `CC(C)NC(=O)c1cccc(C(=O)NCc2cccc(-c3ccc(C#N)cc3)c2)n1` [Compound 190] was tested, and the pIC50 was 6.02 to 6.99. Compound `Nc1nc2ccc(CNC(=O)c3cccc(Cl)n3)cc2s1` [Compound 261] has a pIC50 of under 6.00. `CC(C)NC(=O)c1cccc(C(=O)NCc2ccc3nc(N)sc3c2)n1` [Compound 5] gave a pIC50 of 7.01 to 8.40. `Nc1nc2ccc(CNC(=O)c3cccc(C(=O)N4CCCC(O)C4)n3)cc2s1` (stereo not drawn) [Compound 34] was tested, and the pIC50 was under 6.00. In the case of `CC(C)NC(=O)c1cccc(C(=O)NCc2cnn(-c3cncc(C#N)c3)c2)n1` [Compound 161], the pIC50 was 7.01 to 8.40. Work on `CCOC(=O)N1CCC(NC(=O)c2cccc(C(=O)NCc3ccc(S(C)(=O)=O)cc3)n2)CC1` [Compound 43] yielded a pIC50 of 6.02 to 6.99. With `CC(C)NC(=O)c1cccc(C(=O)NCc2ccc(N3CCCC3)nc2)n1` [Compound 114] the pIC50 was 6.02 to 6.99. For `COc1cccc(C(=O)NCc2ccc3nc(N)sc3c2)n1` [Compound 267], the pIC50 was under 6.00. `CN(C)C(=O)c1cccc(C(=O)NCc2ccc3nc(N)sc3c2)n1` [Compound 13] gave a pIC50 of under 6.00. In the case of `CS(=O)(=O)c1ccc(CNC(=O)c2cccc(-c3ccccn3)n2)cc1` [Compound 317], the pIC50 was < 6.00 and 5.00 to 5.99. In the case of `CC(C)C[C@@H](CO)NC(=O)c1cccc(C(=O)NCc2ccc3nc(N)sc3c2)n1` [Compound 20], the pIC50 was under 6.00. In the case of `CC(C)NC(=O)c1cccc(-c2nc3ccccc3[nH]2)n1` [Compound 377], the pIC50 was < 6.00 and 5.00 to 5.99. With `CC(C)NC(=O)c1cccc(C(=O)NCc2cnn(-c3ccc(S(=O)(=O)N4CCNCC4)cc3)c2)n1` [Compound 245] the pIC50 was 7.72 to 8.40 and 7.01 to 8.40. `CS(=O)(=O)c1ccc(CNC(=O)c2cccc(-n3cc(Br)cn3)n2)cc1` [Compound 328] gave a pIC50 of 6.02 to 6.99. `Nc1nc2ccc(CNC(=O)c3cccc(C(=O)NC4CCC4)n3)cc2s1` [Compound 11] was tested, and the pIC50 was 7.01 to 8.40. `Nc1nc2ccc(CNC(=O)c3cccc(C(=O)N[C@H]4CC[C@H](O)CC4)n3)cc2s1` [Compound 68] was tested, and the pIC50 was 6.02 to 6.99. `CC(C)NC(=O)c1cccc(C(=O)N[C@@H](C)c2ccc(O)cc2)n1` [Compound 124] was tested, and the pIC50 was 6.02 to 6.99. For `CS(=O)(=O)c1ccc(CNC(=O)c2cccc(C(=O)NC3CCN(S(=O)(=O)Cc4ccccc4)CC3)n2)cc1` [Compound 61], the pIC50 was under 6.00. `CCOC(=O)N1CCC(NC(=O)c2cccc(C(=O)NCc3ccc(S(C)(=O)=O)cc3)c2)CC1` [Compound 371] gave a pIC50 of under 6.00. `Nc1nc2ccc(CNC(=O)c3cccc(-n4cccn4)n3)cc2s1` [Compound 264] was tested, and the pIC50 was 6.02 to 6.99. With `CS(=O)(=O)c1ccc(CNC(=O)c2cccc(-n3ccc(C(F)(F)F)n3)n2)cc1` [Compound 315] the pIC50 was < 6.00 and 5.00 to 5.99. With `CC(C)NC(=O)c1cccc(C(=O)NCc2ccc(-c3ccc(Cl)cc3)nc2)n1` [Compound 182] the pIC50 was 6.02 to 6.99. With `CS(=O)(=O)c1ccc(-n2cc(CNC(=O)c3cccc(-n4cccn4)n3)cn2)cc1` [Compound 293] the pIC50 was 6.02 to 6.99. `CC(C)NC(=O)c1cccc(C(=O)NCc2cccc(-c3cccc(S(C)(=O)=O)c3)c2)n1` [Compound 191] was tested, and the pIC50 was 7.01 to 8.40. In the case of `CC(C)NC(=O)c1cccc(C(=O)NCc2cncc(-c3cccc(C#N)c3)c2)n1` [Compound 258], the pIC50 was 7.01 to 8.40. With `CS(=O)(=O)c1ccc(CNC(=O)c2cccc(-c3ccccc3F)n2)cc1` [Compound 316] the pIC50 was < 6.00 and 5.00 to 5.99. Compound `CC(C)NC(=O)c1cccc(C(=O)NCc2ccc3c(c2)OCO3)n1` [Compound 89] has a pIC50 of 6.02 to 6.99. With `CC(C)C(=O)N(C)c1cccc(C(=O)NCc2cnn(-c3cccc(C(F)(F)F)c3)c2)n1` [Compound 365] the pIC50 was < 6.00 and 5.00 to 5.99. With `CSc1nccc(N2CCC(NC(=O)c3cccc(C(=O)NCc4ccc(S(C)(=O)=O)cc4)n3)CC2)n1` [Compound 274] the pIC50 was under 6.00. In the case of `CC(C)NC(=O)c1cccc(C(=O)NCc2nc3ccccc3n2C)n1` [Compound 107], the pIC50 was < 6.00 and 5.00 to 5.99. With `CCNC(=O)c1cccc(C(=O)NC2CCN(C(=O)OCC)CC2)n1` [Compound 39] the pIC50 was under 6.00. Compound `CC(C)NC(=O)c1cccc(C(=O)NCc2nc3ccccc3s2)n1` [Compound 85] has a pIC50 of 7.01 to 8.40. `CS(=O)(=O)c1ccc(CNC(=O)c2cccc(-n3cncn3)n2)cc1` [Compound 326] was tested, and the pIC50 was 5.00 to 5.99 and < 6.00. With `CC(C)NC(=O)c1cccc(C(=O)NCc2ccc(-c3ccccn3)s2)n1` [Compound 118] the pIC50 was 6.02 to 6.99. For `CS(=O)(=O)c1ccc(-n2cc(CNC(=O)c3cccc(C(=O)NC4CCC4)n3)cn2)cc1` [Compound 76], the pIC50 was 7.72 to 8.40 and 7.01 to 8.40. `CC(C)NC(=O)c1cccc(C(=O)NCC2CCN(c3ccc(C#N)cc3)CC2)n1` [Compound 420] was tested, and the pIC50 was < 6.00 and 5.00 to 5.99. With `CS(=O)(=O)c1ccc(CNC(=O)c2cccc(-c3nc4ccccc4[nH]3)n2)cc1` [Compound 376] the pIC50 was 6.02 to 6.99. `O=C(NCc1cccnc1)c1cccc(-n2cc(I)cn2)n1` [Compound 289] was tested, and the pIC50 was 6.02 to 6.99.
